This is an account of results in patent publication US6391878B2, “Guanidinyl heterocycle compounds useful as alpha-2 adrenoceptor agonists” (The Procter & Gamble Company, priority 1996, dated 2002).

For test [1], the system named is patient with nasal congestion. Put plainly: Composition given to a patient with nasal congestion. It is filed as in vivo, human. Here is the method:
One tablet is swallowed by a patient with nasal congestion.
One tablet is chewed and swallowed by a patient with nasal congestion.
One tablet is placed under the tongue of a patient with nasal congestion and allowed to dissolve.
One-tenth of a mL of the composition is sprayed from a pump actuator into each nostril of a patient with nasal congestion.
One-fifth of a mL of the composition is applied as drops from a dropper into each nostril of a patient with riasal congestion.
One 15 mL dose of the alcohol-free liquid medication is swallowed by a patient with nasal congestion.

The test system of test [2] is patient with asthma. Nature of the test: Inhalation aerosol given to a patient with asthma. Format: in vivo, human. To be noted: Example F inhalation aerosol 5.0 % w/v, two puffs from a metered-dose inhaler. The text has this: Two-puffs of the aerosol composition is inhaled from a metered-dose inhaler by a patient with asthma.
Test [3] deals with patient with migraine. Put plainly: Oral tablet given to a patient with migraine. It is filed as in vivo, human. To be noted: Example K oral tablet, 4 mg per tablet, one tablet swallowed. The text has this: One tablet is swallowed by a patient with migraine.
The test system of test [4] is human subject suffering from septic or cardiogenic shock. Nature of the test: Intravenous solution given to a human subject suffering from septic or cardiogenic shock. Format: in vivo. To be noted: Example T parenteral solution 10 mg/ml carrier, approximately 2.0 ml intravenously. Here is the method: The above ingredients are mixed, forming a solution. Approximately 2.0 ml of the solution is administered, intravenously, to a human subject suffering from septic or cardiogenic shock. The symptoms subside.

Test [5] deals with patient with glaucoma. Put plainly: Topical ophthalmic composition given to a patient with glaucoma, intraocular pressure. To be noted: Example G topical ophthalmic composition 0.10 % w/v, one-tenth of a mL into each eye. It is filed as in vivo, human. Here is the method: One-tenth of a mL of the composition is administered directly into each eye of a patient with glaucoma.

Test [6] relates to patient with nasal congestion and runny nose due to allergic rhinitis. Nature of the test: Oral liquid given to a patient with nasal congestion and runny nose due to allergic rhinitis. Format: in vivo, human. To be noted: Example H oral liquid, 15 mg per 15 mL dose, with chlorpheniramine maleate 4 mg, one dose swallowed. The procedure: One 15 mL dose of the liquid composition is swallowed by a patient with nasal congestion and runny nose due to allergic rhinitis.

For `Cc1nc2c(C)c(NC(=N)N)ccc2[nH]1` [Subject Compound 3, (2,4-Dimethylbenzimidazol-5-yl)quanidine], in test [1] (Example D intranasal solution 0.20 % w/v, one-tenth of a mL sprayed into each nostril), the nasal congestion entry is on record as “substantially diminished”.

For `Cc1cc(NC(=N)N)c(C)c2[nH]cnc12` [Subject Compound 2, (4,7-Dimethylbenzimidazol-5-yl)guanidine], the nasal congestion result in test [1] (Example J alcohol-free oral liquid, 30 mg per 15 mL dose, one dose swallowed) is “substantially diminished”. In test [2], the asthmatic condition result is reported as “effectively relieved”.

On to `Cc1c(NC(=N)N)ccc2nc[nH]c12` [Subject Compound 1, (4-Methylbenzimidazol-5-yl)guanidine], for which the nasal congestion result in test [1] (Example B chewable tablet, 15.0 mg per tablet, one tablet chewed and swallowed) was “substantially reduced”; in test [1] (Example E intranasal gel 0.10 % w/v, one-fifth of a mL as drops into each nostril), “substantially reduced”. Further, the “pain and aura of migraine” value in test [3] is reported as “substantially diminished”. Also, the “symptoms of septic or cardiogenic shock” value in test [4] is “subside”.

Regarding `N=C(N)Nc1ccc2nc[nH]c2c1Br` [Subject Compound 5, (4-Bromobenzimidazol-5-yl)guanidine], the nasal congestion result in test [1] (Example C sublingual tablet, 2.00 mg per tablet, dissolved under the tongue) is “rapidly and substantially diminished”. Moreover, the intraocular pressure entry in test [5] is “substantially reduced”.

On to `Cc1c(NC(=N)N)ccc2c1ncn2C` [Subject Compound 4, (1,4-Dimethylbenzimidazol-5-yl)quanidine], for which the nasal congestion entry in test [1] (Example A oral tablet, 20.0 mg per tablet, one tablet swallowed) is on record as “substantially diminished”. Besides, the “congestion and runny nose” value in test [6] is listed as “effectively reduced”.
